From patent US20220152085A1, “COMBINATION IMMUNOREGULATION AND USES THEREOF” (Ohio State Innovation Foundation, priority 2019, published 2022)
Counter-ions that a name gives are not always drawn.

System: E.G7-OVA cells
Test: Endocytic pathways: cellular uptake of PL1-Alexa-Fluor 647-labeled RNA nanoparticles with endocytic inhibitors, flow cytometry
Format: cell-based
Settings: inhibitor 0.5 h before nanoparticles, flow cytometry after 3 h, FIG. 13
Experimental: E.G7-OVA cells were treated with 5-(N-Methyl-N-isopropyl)amiloride (EIPA), chlorpromazine hydrochloride (CPZ), or methyl-β-cyclodextrin (MβCD). After 0.5 h, cells were treated with PL1-Alexa-Fluor 647-labeled RNA nanoparticles. After 3 h, cells were analyzed by flow cytometry. All data are from n=3 biologically independent samples and are presented as mean±S.E.M. Statistical significance was analyzed by the two-tailed Student's t-test. *P<0.05.
Biomimetic compounds, phospholipids and glycolipids, are composed of a biomimetic head (phosphate head or glyco head), an ionizable amino core, and multiple hydrophobic tails (FIG. 11). These phospholipid and glycolipid derivatives (PLs and GLs) were synthesized according to previously reported procedures. See, for example, WO/2019/027999. […] Following this synthetic route, PL1-18 and GL1-16 materials were synthesized (FIG. 4C), which were characterized by […] nuclear magnetic resonance (NMR) and mass spectroscopy (MS) (FIG. 4C). Next, PLs and GLs nanoparticles were formulated with firefly luciferase mRNA (FLuc mRNA), and were characterized according to size, surface charge, and mRNA encapsulation efficiency (FIGS. 12A-12C). […]

Compound | inhibition of cellular uptake of PL1 nanoparticles [%]
CN(C)CCCN1c2ccccc2Sc2ccc(Cl)cc21 [CPZ, chlorpromazine hydrochloride] | 56
methyl-β-cyclodextrin [MβCD] | 39
